Among the data in ChEMBL document CHEMBL1153307, “Total synthesis and antihypertensive activity of (+/-)7,8-dihydroxy-3-methyl-isochromanone-4” (Bioorg Med Chem Lett, 2009) are Activity values, retold here.

Structures are written as SMILES. Active and inactive are the calls of the source. The rule behind the calls is not given here.

The species named for experiment [1] is Sus scrofa. Briefly: Inhibition of pig lung ACE at 10 pmol/L assessed as enzyme restrain rate. On the set-up: scale not given: the % may be the effect or the level left.
The species named for experiment [2] is Sus scrofa. The experiment can be described thus: Inhibition of pig lung ACE at 100 nmol/L assessed as enzyme restrain rate. Set-up: scale not given: the % may be the effect or the level left.
The species entered for experiment [3] is Sus scrofa. Briefly: Inhibition of pig lung ACE at 1 umol/L assessed as enzyme restrain rate. On the set-up: scale not given: the % may be the effect or the level left.
Experiment [4] is filed under the species Sus scrofa. Briefly: Inhibition of pig lung ACE at 1 pmol/L assessed as enzyme restrain rate. On the set-up: scale not given: the % may be the effect or the level left.
The species entered for experiment [5] is Sus scrofa. Briefly: Inhibition of pig lung ACE at 100 pmol/L assessed as enzyme restrain rate. Set-up: scale not given: the % may be the effect or the level left.
For experiment [6], the species on record is Sus scrofa. The experiment can be described thus: Inhibition of pig lung ACE at 100 umol/L assessed as enzyme restrain rate. Set-up: scale not given: the % may be the effect or the level left.
The species entered for experiment [7] is Sus scrofa. Briefly: Inhibition of pig lung ACE at 10 nmol/L assessed as enzyme restrain rate. On the set-up: scale not given: the % may be the effect or the level left.
The species named for experiment [8] is Sus scrofa. Briefly: Inhibition of pig lung ACE at 10 umol/L assessed as enzyme restrain rate. Set-up: scale not given: the % may be the effect or the level left.
For experiment [9], the system named is Rattus norvegicus. The experiment can be described thus: Acute antihypertensive activity in two-kidney one-clip renal hypertensive rat assessed as reduction in diastolic arterial pressure at 100 mg/kg/day. The format is functional, organism-based.
Experiment [10] relates to Rattus norvegicus. The experiment can be described thus: Acute antihypertensive activity in two-kidney one-clip renal hypertensive rat assessed as reduction in systolic arterial pressure at 100 mg/kg/day. In kind it is functional, organism-based.

Turning to `C[C@H](CS)C(=O)N1CCC[C@H]1C(=O)O`, the Activity was found to be 47% in experiment [1]; 97% in experiment [2]; 95% in [3]; 42% in experiment [4]; 48% in experiment [5]; 94% in [6]. The Activity was found to be 96% in [7] and 94% in [8].

Turning to `CC1OCc2c(ccc(O)c2O)C1=O` (racemic), the Activity amounted to 41% in experiment [1]; 74% in experiment [2]; 61% in [3]; 34% in experiment [4]; 44% in experiment [5]; 77% in [6]. In addition, the Activity in experiment [7] was 87%; in experiment [8], 61%. The outcome in [9] and in experiment [10] was Active.
